Patent publication US8063026B2, “Method of palliating lower urinary tract infections by treatment with mannan oligosaccharides” (priority 2006, dated 2011)

Test system: UTI symptoms
Assay: Treatment of UTI symptoms in a patient (case reports)
Type: in vivo, human
Settings: recurrent UTI episodes about 48 hours after sex, 1 tablet twice daily for five days
Experimental: A patient had been experiencing urinary tract infections since 1999. Episodes were very painful and invariably occurred about 48 hours after having sex. […] This pattern persisted for 6 years.
During an episode of UTI symptoms (urge to urinate; severe burning with urination; blood in urine), 100 mg MOS was administered to a patient (weighing approximately 50 kg) as a tablet (BioMOS® tablets, Alltech)-1 tablet before and after sex, plus three tablets per day.
Beginning during a symptom-free period, 100 mg MOS was administered to a patient (weighing approximately 50 kg) as a tablet (BioMOS® tablets, Alltech), once per day plus one pill with sex.
During a symptom-free period, 500 mg of MOS was administered as a capsule (capsules prepared from bulk CitriStim™, Archer Daniels Midland Alliance Nutrition, Inc., Quincy, Ill.; 1 or 2 capsules daily). […] Two capsules (CitriStim) were administered (three hours apart), followed 2 hours later by 100 mg MOS in tablet form (BioMOS® tablets, Alltech). […] Two MOS tablets were administered that morning (4 hours apart). In the late afternoon, a CitriStim capsule was administered, and one capsule was administered twice the following day.

O=C(O)c1cn(C2CC2)c2cc(N3CCNCC3)c(F)cc2c1=O [Cipro®, ciprofloxacin]
Relief of UTI symptoms: quickly relieve symptoms

trimethoprim-sulfamethoxazole [Bactrin DS®]
Relief of UTI symptoms: quickly relieve symptoms
